Patent US12336981B2, “Compounds and compositions for the inhibition of NAMPT” (Valo Health, Inc., priority 2010, dated 2025)
“And” between values parts separate entries of the source, which are not always exact repeats. Identical values can stand only once. Like-named read-outs stand apart in the source and are kept apart here.

How the values were obtained:
A2780 cells = assay: In-vitro cell proliferation assay (SRB), A2780 cells; format: cell-based; conditions: A2780 cells, 72 hours, read-out: A2780 IC50
Summary of the method: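 Proliferation is assessed by sulforhodamine B staining following a 72-hour incubation with compound dilutions containing 0.1% DMSO.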

NAMPT = target: T1, NAMPT (Homo sapiens, UniProt P43490); assay: Biochemical inhibition assay: NAMPT enzymatic reaction, NMN quantified by mass spectrometry; conditions: read-out: Biochem IC50
T1 construct: His tag; host or cells: E. coli
T1 sequence (P43490 whole entry): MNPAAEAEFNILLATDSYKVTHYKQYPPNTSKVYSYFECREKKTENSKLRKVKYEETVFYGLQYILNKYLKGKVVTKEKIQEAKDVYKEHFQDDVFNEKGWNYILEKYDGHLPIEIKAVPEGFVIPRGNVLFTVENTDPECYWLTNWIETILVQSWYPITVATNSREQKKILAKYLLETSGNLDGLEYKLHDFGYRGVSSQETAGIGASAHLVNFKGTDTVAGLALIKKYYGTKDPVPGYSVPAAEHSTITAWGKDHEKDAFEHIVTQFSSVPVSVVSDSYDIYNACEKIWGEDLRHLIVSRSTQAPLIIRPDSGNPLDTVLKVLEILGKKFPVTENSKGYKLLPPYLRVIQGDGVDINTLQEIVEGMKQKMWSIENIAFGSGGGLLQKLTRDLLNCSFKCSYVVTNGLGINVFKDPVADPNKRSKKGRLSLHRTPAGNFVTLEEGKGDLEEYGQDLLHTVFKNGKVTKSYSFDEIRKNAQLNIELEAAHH
Summary of the method: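 Inhibition of E. coli-expressed His-tagged human NAMPT, measured as NMN formation by mass spectrometry after a 30 min room-temperature reaction containing 1 μM NAM, 100 μM PRPP and 2.5 mM ATP.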

[1] = Homo sapiens, A2780, 72 h, SRB assay

| Structure (SMILES) | IC50 (A2780 cells; Homo sapiens, A2780, 72 h, SRB) [nM] | IC50 (NAMPT; NAMPT enzymatic assay) | IC50 (A2780 cells; [1]) [nM] | IC50 (NAMPT; NAMPT enzymatic reaction) [nM] | IC50 (A2780 cells; SRB) [nM] |
| --- | --- | --- | --- | --- | --- |
| O=C(NCc1ccc(S(=O)(=O)c2cnc3ccc(Cl)cn23)cc1)c1cnc2nccn2c1 [N-[(4-{6-chloroimidazo[1,2-a]pyridine-3-sulfonyl}phenyl)methyl]imidazo[1,2-a]pyrimidine-6-carboxamide] | 0.4 | 1.6 nM |  |  |  |
| COc1cc(Cl)ccc1S(=O)(=O)c1ccc(CNC(=O)c2cc3ccncc3s2)cc1 [N-({4-[(4-chloro-2-methoxybenzene)sulfonyl]phenyl}methyl)thieno[2,3-c]pyridine-2-carboxamide] |  |  | 3.8 | 10 |  |
| O=C(NCc1ccc(S(=O)(=O)c2cccc(C(F)(F)F)c2)cc1)c1ccc2nccn2c1 [N-[(4-{[3-(trifluoromethyl)benzene]sulfonyl}phenyl)methyl]imidazo[1,2-a]pyridine-6-carboxamide] | 1.72 | 8.42 nM |  |  |  |
| O=C(NCc1ccc(S(=O)(=O)c2csc(-c3cccc(F)c3)n2)cc1)c1cc2ccncc2s1 [N-({4-[2-(3-fluorophenyl)-1,3-thiazole-4-sulfonyl]phenyl}methyl)thieno[2,3-c]pyridine-2-carboxamide] | 24.4 | 6.6 nM |  |  |  |
| CC(C)CNC(=O)c1cccc(S(=O)(=O)c2ccc(CNC(=O)c3cnc4nccn4c3)cc2)c1 | 45.6 | 7 nM |  |  |  |
| Cc1cc(C)c(S(=O)(=O)c2ccc(CNC(=O)c3cc4ccncc4o3)cc2)cc1C | 14.1 |  |  | 9.1 |  |
| CCCOc1ccc(S(=O)(=O)c2ccc(CNC(=O)c3cnc4[nH]ncc4c3)cc2)cc1F [N-({4-[(3-fluoro-4-propoxybenzene)sulfonyl]phenyl}methyl)-1H-pyrazolo[3,4-b]pyridine-5-carboxamide] | 6.5 |  |  | 11.6 |  |
| O=C(NCc1ccc(S(=O)(=O)c2cccc(N3CCCCC3)c2)cc1)c1cnc2nccn2c1 | 11.4 | 5.1 nM and 1.2 nM |  |  | 5.7 |
| COc1cc(F)cc(S(=O)(=O)c2ccc(CNC(=O)c3cc4ccncc4o3)cc2)c1 [N-({4-[(3-fluoro-5-methoxybenzene)sulfonyl]phenyl}methyl)furo[2,3-c]pyridine-2-carboxamide] | 3.3 |  |  | 17.4 |  |
| COc1ccc(OC)c(S(=O)(=O)c2ccc(CNC(=O)c3cc4ccncc4s3)cc2)c1OC [N-({4-[(2,3,6-trimethoxybenzene)sulfonyl]phenyl}methyl)thieno[2,3-c]pyridine-2-carboxamide] | 5.5 | 12 nM |  |  |  |
| O=C(NCc1ccc(S(=O)(=O)c2ccc3c(c2)OCO3)cc1)c1ccc2nccn2c1 [N-{[4-(2H-1,3-benzodioxole-5-sulfonyl)phenyl]methyl}imidazo[1,2-a]pyridine-6-carboxamide] | 5.33 | 10.7 nM |  |  |  |
| COc1ccc(S(=O)(=O)c2ccc(CNC(=O)c3ccc4nccn4c3)cc2)cc1OC [N-({4-[(3,4-dimethoxybenzene)sulfonyl]phenyl}methyl)imidazo[1,2-a]pyridine-6-carboxamide] | 2.51 |  |  | 12 |  |
| O=C(NCc1ccc(S(=O)(=O)c2ccc(-c3ccccc3)cc2)cc1)c1cc2ccncc2o1 [N-({4-[(4-phenylbenzene)sulfonyl]phenyl}methyl)furo[2,3-c]pyridine-2-carboxamide] | 6.9 |  |  | 3.7 |  |
| COc1ccc(S(=O)(=O)c2ccc(CNC(=O)c3cc4ccncc4s3)cc2)c(C(F)(F)F)c1 | 13 | 21.7 nM |  |  |  |
| Cc1cc(C)c(S(=O)(=O)c2ccc(CNC(=O)c3cnc4nccn4c3)cc2)cc1C | 24 |  |  | 6.9 |  |
| O=C(NCc1ccc(S(=O)(=O)c2cccc3ccsc23)cc1)c1cc2ccncc2s1 [N-{[4-(1-benzothiophene-7-sulfonyl)phenyl]methyl}thieno[2,3-c]pyridine-2-carboxamide] | 1.5 | 1.5 nM |  |  |  |
| O=C(NCc1ccc(S(=O)(=O)c2ccccc2)cc1)c1cnc2[nH]ncc2c1 [N-{[4-(benzenesulfonyl)phenyl]methyl}-1H-pyrazolo[3,4-b]pyridine-5-carboxamide] |  |  | 51 | 70 |  |
| CS(=O)(=O)c1cccc(S(=O)(=O)c2ccc(CNC(=O)c3cc4ccncc4s3)cc2)c1 | 3.5 |  |  | 1.7 |  |
| O=C(NCc1ccc(S(=O)(=O)c2ccccc2OC(F)(F)F)cc1)c1cnc2nccn2c1 [N-[(4-{[2-(trifluoromethoxy)benzene]sulfonyl}phenyl)methyl]imidazo[1,2-a]pyrimidine-6-carboxamide] | 11.5 | 2.4 nM |  |  |  |
| COc1ccc(C(C)=O)cc1S(=O)(=O)c1ccc(CNC(=O)c2cc3cnccc3[nH]2)cc1 [N-({4-[(5-acetyl-2-methoxybenzene)sulfonyl]phenyl}methyl)-1H-pyrrolo[3,2-c]pyridine-2-carboxamide] |  |  | 6 | 20 |  |
| O=C(NCc1ccc(S(=O)(=O)c2cccc(CN3CCCCC3)c2)cc1)c1cnc2nccn2c1 | 30.6 | 1.9 nM |  |  |  |
| O=C(NCc1ccc(S(=O)(=O)N2CCCCC2)cc1)c1ccc2nccn2c1 [N-{[4-(piperidine-1-sulfonyl)phenyl]methyl}imidazo[1,2-a]pyridine-6-carboxamide] |  |  | 1160 | 18 |  |
| Cc1cnc(S(=O)(=O)c2ccc(CNC(=O)c3cnc4nccn4c3)cc2)n1C [N-{[4-(1,5-dimethyl-1H-imidazole-2-sulfonyl)phenyl]methyl}imidazo[1,2-a]pyrimidine-6-carboxamide] | 1000 to 10000 | 32.9 nM |  |  |  |

| Structure (SMILES) | IC50 (A2780 cells; Homo sapiens, A2780, 72 h, SRB) [nM] | IC50 (NAMPT; NAMPT enzymatic assay) | IC50 (A2780 cells; [1]) [nM] | IC50 (NAMPT; NAMPT enzymatic reaction) [nM] | IC50 (A2780 cells; SRB) [nM] |
| --- | --- | --- | --- | --- | --- |
| CC(C)COc1cc(F)cc(S(=O)(=O)c2ccc(CNC(=O)c3cnc4nccn4c3)cc2)c1 | 3.4 | 3.1 nM |  |  |  |
| O=C(NCc1ccc(S(=O)(=O)c2cncc3ccccc23)cc1)c1cc2cnccc2[nH]1 [N-{[4-(isoquinoline-4-sulfonyl)phenyl]methyl}-1H-pyrrolo[3,2-c]pyridine-2-carboxamide] | 1.6 | 10.9 nM |  |  |  |
| Cc1ccccc1S(=O)(=O)c1ccc(CNC(=O)c2cnc3[nH]ncc3c2)cc1 [N-({4-[(2-methylbenzene)sulfonyl]phenyl}methyl)-1H-pyrazolo[3,4-b]pyridine-5-carboxamide] | 100 to 1000 |  |  | 92.6 |  |
| COc1ccc(S(=O)(=O)c2ccc(CNC(=O)c3cc4ccncc4s3)cc2)cc1F [N-({4-[(3-fluoro-4-methoxybenzene)sulfonyl]phenyl}methyl)thieno[2,3-c]pyridine-2-carboxamide] |  |  | 2.5 | 5 |  |
| COc1c(C(F)(F)F)cccc1S(=O)(=O)c1ccc(CNC(=O)c2cc3ccncc3s2)cc1 | 12.8 | 9.4 nM |  |  |  |
| O=C(NCc1ccc(S(=O)(=O)c2cccc(-n3cccn3)c2)cc1)c1cc2ccncc2o1 | 9.1 | 7.5 nM |  |  |  |
| CCOc1cccc(S(=O)(=O)c2ccc(CNC(=O)c3ccc4nccn4c3)cc2)c1F | 6.2 |  |  | 5 |  |
| O=C(NCc1ccc(S(=O)(=O)c2ccc3nc(C(F)(F)F)cn3c2)cc1)c1cc2ccncc2s1 [N-({4-[2-(trifluoromethyl)imidazo[1,2-a]pyridine-6-sulfonyl]phenyl}methyl)thieno[2,3-c]pyridine-2-carboxamide] | 3.9 | 3.1 nM |  |  |  |
| Cn1ncc2ccc(S(=O)(=O)c3ccc(CNC(=O)c4cc5ccncc5s4)cc3)cc21 [N-{[4-(1-methyl-1H-indazole-6-sulfonyl)phenyl]methyl}thieno[2,3-c]pyridine-2-carboxamide] | 1.1 | 2.3 nM |  |  |  |
| O=C(NCc1ccc(S(=O)(=O)c2csc(-c3cccc(F)c3)n2)cc1)c1cnc2[nH]ncc2c1 [N-({4-[2-(3-fluorophenyl)-1,3-thiazole-4-sulfonyl]phenyl}methyl)-1H-pyrazolo[3,4-b]pyridine-5-carboxamide] | 60.9 | 27.1 nM |  |  |  |
| O=C(NCc1ccc(S(=O)(=O)c2cc(F)cc(Cl)c2)cc1)c1ccc2nccn2c1 | 0.3 |  |  | 3.9 |  |
| O=C(NCc1ccc(S(=O)(=O)c2ccccc2)cc1)c1cc(-c2cccnc2)[nH]n1 [N-{[4-(benzenesulfonyl)phenyl]methyl}-5-(pyridin-3-yl)-1H-pyrazole-3-carboxamide] |  |  | 11800 | 23 |  |
| O=C(NCc1ccc(S(=O)(=O)c2cccc(C(F)(F)F)n2)cc1)c1cnc2nccn2c1 [N-({4-[6-(trifluoromethyl)pyridine-2-sulfonyl]phenyl}methyl)imidazo[1,2-a]pyrimidine-6-carboxamide] | 20.4 | 11.4 nM |  |  |  |
| CCN(CC)C(=O)c1cc(F)cc(S(=O)(=O)c2ccc(CNC(=O)c3cc4ccncc4o3)cc2)c1 | 3.8 | 10.3 nM |  |  |  |
| CN(C)CCc1ccc(S(=O)(=O)c2ccc(CNC(=O)c3ccc4nccn4c3)cc2)cc1 | 0.8 | 2.1 nM |  |  |  |
| O=C(NCc1ccc(S(=O)(=O)c2cc(F)ccc2Cl)cc1)c1ccc2nccn2c1 | 6.3 |  |  | 21 |  |
| CC(C)NC(=O)c1cccc(S(=O)(=O)c2ccc(CNC(=O)c3ccc4nccn4c3)cc2)c1 | 50.4 | 22.2 nM |  |  |  |
| COc1ccc(F)c(S(=O)(=O)c2ccc(CNC(=O)c3cc4cnccc4[nH]3)cc2)c1 | 14.4 |  |  | 77.8 |  |
| COc1c(C(F)(F)F)cccc1S(=O)(=O)c1ccc(CNC(=O)c2ccc3nccn3c2)cc1 | 14.8 | 21.9 nM |  |  |  |
| O=C(NCc1ccc(S(=O)(=O)c2cccc(OC(F)(F)F)c2)cc1)c1cc2ccncc2s1 [N-[(4-{[3-(trifluoromethoxy)benzene]sulfonyl}phenyl)methyl]thieno[2,3-c]pyridine-2-carboxamide] |  |  | 2.4 | 2 |  |
| O=C(NCc1ccc(S(=O)(=O)c2cccc(Cl)c2F)cc1)c1cc2ccncc2o1 | 12.8 |  |  | 10.9 |  |
| O=C(NCc1ccc(S(=O)(=O)c2ccccc2)cc1)c1ccc2ccncc2c1 [N-{[4-(benzenesulfonyl)phenyl]methyl}isoquinoline-7-carboxamide] |  |  | 24000 | 219 |  |
